According to patent US9096500B2, “Acyl sulfonamide compounds” (Pfizer Limited, priority 2010, dated 2015):
pIC50: −log10 of the molar value.

Experiments:
[1] = target: T1, Nav1.7 (or SCN9A) channel (Homo sapiens, UniProt Q15858); assay: Nav1.7 (hSCN9A) electrophysiology assay, Ionworks Quattro platform; format: cell-based; settings: IW: Ionworks Quattro automated electrophysiological platform; HEK cells stably expressing hSCN9A; read-out: Nav1.7 EIC50
T1 construct: expressed in transfected cells

[2] = target: T1, Nav1.7 (or SCN9A) channel; assay: Nav1.7 (hSCN9A) electrophysiology assay, PatchXpress platform; format: cell-based; settings: estimated IC50 from single point electrophysiology data, HEK cells stably expressing hSCN9A, held at V1/2 of inactivation, read-out: Nav1.7 EIC50
How it was run: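 HEK cells stably expressing hSCN9A were recorded by whole-cell voltage clamp, including on PatchXpress, at 22–24°C with extracellular solution at pH 7.4. A 20 msec step to 0 mV followed an 8 s conditioning prepulse to the empirically determined inactivation V1/2. Inhibition was taken from current amplitude before vs after compound.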

T1 sequence (Q15858 whole entry): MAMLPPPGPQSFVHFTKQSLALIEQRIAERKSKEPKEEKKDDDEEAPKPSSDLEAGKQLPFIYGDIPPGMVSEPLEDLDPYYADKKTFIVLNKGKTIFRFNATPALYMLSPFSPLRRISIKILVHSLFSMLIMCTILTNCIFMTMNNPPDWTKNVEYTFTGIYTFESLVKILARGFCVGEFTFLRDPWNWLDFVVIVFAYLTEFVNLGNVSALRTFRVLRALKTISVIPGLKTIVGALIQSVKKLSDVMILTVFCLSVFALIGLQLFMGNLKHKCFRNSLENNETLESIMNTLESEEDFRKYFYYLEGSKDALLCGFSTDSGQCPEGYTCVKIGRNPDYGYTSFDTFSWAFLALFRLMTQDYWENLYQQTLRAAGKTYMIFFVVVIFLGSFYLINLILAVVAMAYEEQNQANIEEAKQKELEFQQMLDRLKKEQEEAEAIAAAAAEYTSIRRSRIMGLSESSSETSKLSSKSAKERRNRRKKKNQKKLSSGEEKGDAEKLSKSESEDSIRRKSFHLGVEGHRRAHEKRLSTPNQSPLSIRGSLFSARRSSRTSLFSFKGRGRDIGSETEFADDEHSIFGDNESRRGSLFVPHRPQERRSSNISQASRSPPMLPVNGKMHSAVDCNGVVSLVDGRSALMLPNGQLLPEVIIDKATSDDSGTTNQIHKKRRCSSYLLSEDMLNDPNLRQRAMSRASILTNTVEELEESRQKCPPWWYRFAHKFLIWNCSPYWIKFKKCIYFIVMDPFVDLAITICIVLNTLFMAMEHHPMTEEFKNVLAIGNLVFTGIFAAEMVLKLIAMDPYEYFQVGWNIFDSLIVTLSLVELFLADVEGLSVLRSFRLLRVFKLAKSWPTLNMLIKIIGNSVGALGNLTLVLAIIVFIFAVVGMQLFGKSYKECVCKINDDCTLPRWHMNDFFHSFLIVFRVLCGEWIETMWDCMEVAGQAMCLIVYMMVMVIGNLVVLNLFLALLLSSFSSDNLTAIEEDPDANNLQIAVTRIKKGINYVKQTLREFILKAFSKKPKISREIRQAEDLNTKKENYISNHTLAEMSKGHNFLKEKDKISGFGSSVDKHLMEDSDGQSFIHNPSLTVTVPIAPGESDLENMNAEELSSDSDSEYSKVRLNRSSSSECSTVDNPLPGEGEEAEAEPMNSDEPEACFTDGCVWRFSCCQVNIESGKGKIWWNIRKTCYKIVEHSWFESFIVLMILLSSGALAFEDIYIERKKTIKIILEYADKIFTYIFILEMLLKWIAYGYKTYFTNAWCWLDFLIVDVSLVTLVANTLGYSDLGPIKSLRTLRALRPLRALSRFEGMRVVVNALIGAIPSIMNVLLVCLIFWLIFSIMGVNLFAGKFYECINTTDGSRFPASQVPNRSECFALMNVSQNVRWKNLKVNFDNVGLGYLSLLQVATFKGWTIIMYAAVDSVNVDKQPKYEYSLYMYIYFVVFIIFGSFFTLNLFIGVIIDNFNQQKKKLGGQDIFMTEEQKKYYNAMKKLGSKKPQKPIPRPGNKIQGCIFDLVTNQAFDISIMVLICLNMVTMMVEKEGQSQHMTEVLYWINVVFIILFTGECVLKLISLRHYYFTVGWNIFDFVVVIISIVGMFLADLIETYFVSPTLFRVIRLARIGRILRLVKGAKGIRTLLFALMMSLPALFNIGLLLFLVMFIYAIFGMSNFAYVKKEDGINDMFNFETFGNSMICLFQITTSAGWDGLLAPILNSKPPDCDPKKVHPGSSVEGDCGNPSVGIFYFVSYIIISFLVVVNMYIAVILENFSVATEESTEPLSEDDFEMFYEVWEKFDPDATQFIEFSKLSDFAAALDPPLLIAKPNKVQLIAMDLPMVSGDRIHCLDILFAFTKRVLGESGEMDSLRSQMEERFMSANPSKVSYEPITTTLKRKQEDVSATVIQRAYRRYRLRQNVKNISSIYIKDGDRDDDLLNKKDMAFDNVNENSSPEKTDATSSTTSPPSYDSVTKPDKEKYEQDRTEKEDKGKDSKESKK

Row | pIC50 [1] | pIC50 [2] | Structure (SMILES)
1 | 4.66 | – | COc1ccc(OCc2ccc(C(=O)NS(C)(=O)=O)cc2)cc1 [Example 31, 4-[(4-Methoxyphenoxy)methyl]-N-(methylsulfonyl)benzamide]
2 | – | 5.92 | Cc1ccc(COc2cc(F)c(C(=O)NS(C)(=O)=O)cc2F)cc1Cl [Example 228, 4-[(3-chloro-4-methylbenzyl)oxy]-2,5-difluoro-N-(methylsulfonyl)benzamide]
3 | – | < 6.00 | CS(=O)(=O)NC(=O)c1cc(F)c(OCc2cc(F)ccc2F)cc1F [Example 229, 4-[(2,5-difluorobenzyl)oxy]-2,5-difluoro-N-(methylsulfonyl)benzamide]
4 | – | 5.66 | COc1ccc(Cl)cc1COc1cc(F)c(C(=O)NS(C)(=O)=O)cc1F [Example 230, 4-[(5-chloro-2-methoxybenzyl)oxy]-2,5-difluoro-N-(methylsulfonyl)benzamide]
5 | – | 5.85 | CS(=O)(=O)NC(=O)c1cc(F)c(OCc2ccc(Cl)cc2F)cc1F [Example 231, 4-[(4-chloro-2-fluorobenzyl)oxy]-2,5-difluoro-N-(methylsulfonyl)benzamide]
6 | – | 5.68 | CS(=O)(=O)NC(=O)c1cc(F)c(OCc2ccc(F)cc2Cl)cc1F [Example 232, 4-[(2-chloro-4-fluorobenzyl)oxy]-2,5-difluoro-N-(methylsulfonyl)benzamide]
7 | – | < 6.00 | COc1ccccc1COc1cc(F)c(C(=O)NS(C)(=O)=O)cc1F [Example 233, 2,5-difluoro-4-[(2-methoxybenzyl)oxy]-N-(methylsulfonyl)benzamide]
